Data: patent US20080242661A1, “Novel compounds useful for the treatment of degenerative & inflammatory diseases” (priority 2006, published 2008)

Target: purified PDE1A enzyme (Homo sapiens, UniProt P54750)
Experiment: In vitro PDE1A assay, dose response (Biomol Cyclic Nucleotide Phosphodiesterase Assay Kit, colorimetric)
Type: biochemical
Settings: 100 μM cAMP, 45 min at 37° C., 8 points from 20 μM, duplicate
Text: For the dose response and further screening, we used the Cyclic Nucleotide Phosphodiesterase Assay Kit from Biomol, a colorimetric, non-radioactive assay. The basis for the assay is the cleavage of cAMP by PDE1A. The 5′AMP is further cleaved into the nucleoside and phosphate by the enzyme 5′-nucleotidase (catnr KI-307). The phosphate released due to enzymatic cleavage is quantified using BIOMOL GREEN™ reagent (catnr AK-111) in a modified Malachite Green assay 1,2. A PDE1A inhibitor will result in a decrease of the signal.
For the enzymatic reaction a mix of 25 μL with purified PDE1A enzyme, 100 μM cAMP, 5′Nucleotidase and the compound is made in a clear 384-plate. The reaction buffer is Tris 20 mM pH 7.4, 4 μg/ml calmodulin, 3 mM MgCl2, 1.5 mM CaCl2, 0.2 mg/mL BSA and 0.001% Brij-35. After an incubation of 45 minutes at 37° C., the reaction is stopped by the addition of 50 μL BIOMOL GREEN™ reagent. After 30 minutes incubation at room temperature, the readout is performed on the Envision (absorption at 615 nm).
All compounds are tested in duplicate starting from 20 μM followed by a ⅓ serial dilution, 8 points (20 μM-6.67 μM-2.22 μM-740 nM-247 nM-82 nM-27 nM-9 nM) in a final concentration of 1% DMSO. As the positive dose response control compound Vardenafil is used. For the calculation of z′ and PIN values 10 μM Vardenafil is used as positive control (100% inhibition) and 1% DMSO as negative control (0% inhibition).
The following compounds have been or can be prepared according to the synthetic methods described above. For the purpose of Table 2 below, activity of each compound, which can be determined using the PDE1A assay method described in above, is expressed as follows: […]

Structure (SMILES)	IC50 [nM]
CCCc1nn(C)c2c(=O)[nH]c(N(C)Cc3ccc(C(F)(F)F)cc3)nc12 [Example 16, 1-methyl-5-(methyl(4-(trifluoromethyl)benzyl)amino)-3-propyl-1H-pyrazolo[4,3-d]pyrimidin-7(6H)-one]	101 to 500
CCCc1nn(C)c2c(=O)[nH]c(N(C)Cc3ccc(Cl)cc3)nc12 [Example 17, 5-((4-chlorobenzyl)(methyl)amino)-1-methyl-3-propyl-1H-pyrazolo[4,3-d]pyrimidin-7(6H)-one]	< 100
CCCc1nn(C)c2c(=O)[nH]c(NCc3cccc(F)c3)nc12 [Example 18, 5-(3-fluorobenzylamino)-1-methyl-3-propyl-1H-pyrazolo[4,3-d]pyrimidin-7(6H)-one]	> 500
CCCc1nn(C)c2c(=O)[nH]c(NCCC(C)C)nc12 [Example 19, 5-(isopentylamino)-1-methyl-3-propyl-1H-pyrazolo[4,3-d]pyrimidin-7(6H)-one]	> 500
CCCc1nn(C)c2c(=O)[nH]c(N(C)CCc3ccc(OC)c(OC)c3)nc12 [Example 20, 5-((3,4-dimethoxyphenethyl)(methyl)amino)-1-methyl-3-propyl-1H-pyrazolo[4,3-d]pyrimidin-7(6H)-one]	> 500
CCCc1nn(C)c2c(=O)[nH]c(N(C)Cc3ccc(F)cc3)nc12 [Example 21, 5-((4-fluorobenzyl)(methyl)amino)-1-methyl-3-propyl-1H-pyrazolo[4,3-d]pyrimidin-7(6H)-one]	< 100
CCCc1nn(C)c2c(=O)[nH]c(N(C)CCc3ccccc3)nc12 [Example 22, 1-methyl-5-(methyl(phenethyl)amino)-3-propyl-1H-pyrazolo[4,3-d]pyrimidin-7(6H)-one]	101 to 500
CCCc1nn(C)c2c(=O)[nH]c(NCc3ccc(F)cc3)nc12 [Example 23, 5-(4-fluorobenzylamino)-1-methyl-3-propyl-1H-pyrazolo[4,3-d]pyrimidin-7(6H)-one]	> 500
CCCc1nn(C)c2c(=O)[nH]c(N(C)Cc3ccccc3Cl)nc12 [Example 24, 5-((2-chlorobenzyl)(methyl)amino)-1-methyl-3-propyl-1H-pyrazolo[4,3-d]pyrimidin-7(6H)-one]	101 to 500
CCCc1nn(C)c2c(=O)[nH]c(N(C)Cc3cc(-c4ccccc4)on3)nc12 [Example 25, 1-methyl-5-(methyl((5-phenylisoxazol-3-yl)methyl)amino)-3-propyl-1H-pyrazolo[4,3-d]pyrimidin-7(6H)-one]	< 100
CCCc1nn(C)c2c(=O)[nH]c(NCc3cccc(N4CCCC4)c3)nc12 [Example 26, 1-methyl-3-propyl-5-(3-(pyrrolidin-1-yl)benzylamino)-1H-pyrazolo[4,3-d]pyrimidin-7(6H)-one]	101 to 500
CCCc1nn(C)c2c(=O)[nH]c(NCc3ccc(CN4CCOCC4)cc3)nc12 [Example 27, 1-methyl-5-(4-(morpholinomethyl)benzylamino)-3-propyl-1H-pyrazolo[4,3-d]pyrimidin-7(6H)-one]	101 to 500
CCCc1nn(C)c2c(=O)[nH]c(N(Cc3ccccc3)C(C)C)nc12 [Example 28, 5-(benzyl(isopropyl)amino)-1-methyl-3-propyl-1H-pyrazolo[4,3-d]pyrimidin-7(6H)-one]	101 to 500
CCCc1nn(C)c2c(=O)[nH]c(N(CC(C)C)CC(C)C)nc12 [Example 29, 5-(diisobutylamino)-1-methyl-3-propyl-1H-pyrazolo[4,3-d]pyrimidin-7(6H)-one]	101 to 500
CCCc1nn(C)c2c(=O)[nH]c(N(C)CCC)nc12 [Example 30, 1-methyl-5-(methyl(propyl)amino)-3-propyl-1H-pyrazolo[4,3-d]pyrimidin-7(6H)-one]	101 to 500
CCCc1nn(C)c2c(=O)[nH]c(NCc3cc(C(F)(F)F)cc(C(F)(F)F)c3)nc12 [Example 31, 5-(3,5-bis(trifluoromethyl)benzylamino)-1-methyl-3-propyl-1H-pyrazolo[4,3-d]pyrimidin-7(6H)-one]	> 500
CCCc1nn(C)c2c(=O)[nH]c(NCc3ccc(Cl)c(Cl)c3)nc12 [Example 32, 5-(3,4-dichlorobenzylamino)-1-methyl-3-propyl-1H-pyrazolo[4,3-d]pyrimidin-7(6H)-one]	101 to 500
CCCc1nn(C)c2c(=O)[nH]c(N(C)Cc3ccccc3)nc12 [Example 33, 5-(benzyl(methyl)amino)-1-methyl-3-propyl-1H-pyrazolo[4,3-d]pyrimidin-7(6H)-one]	101 to 500
CCCc1nn(C)c2c(=O)[nH]c(N3CCc4cc(F)ccc4C3)nc12 [Example 34, 5-(6-fluoro-3,4-dihydroisoquinolin-2(1H)-yl)-1-methyl-3-propyl-1H-pyrazolo[4,3-d]pyrimidin-7(6H)-one]	101 to 500
CCCc1nn(C)c2c(=O)[nH]c(N(C)Cc3nn(C)c4ccccc34)nc12 [Example 35, 1-methyl-5-(methyl((1-methyl-1H-indazol-3-yl)methyl)amino)-3-propyl-1H-pyrazolo[4,3-d]pyrimidin-7(6H)-one]	> 500
CCCc1nn(C)c2c(=O)[nH]c(N(C)Cc3cc4cccnc4s3)nc12 [Example 36, 1-methyl-5-(methyl(thieno[2,3-b]pyridin-2-ylmethyl)amino)-3-propyl-1H-pyrazolo[4,3-d]pyrimidin-7(6H)-one]	101 to 500
CCCc1nn(C)c2c(=O)[nH]c(N3CCc4cc(OC)c(OC)cc4C3C)nc12 (stereo not shown) [Example 37, 5-(6,7-dimethoxy-1-methyl-3,4-dihydroisoquinolin-2(1H)-yl)-1-methyl-3-propyl-1H-pyrazolo[4,3-d]pyrimidin-7(6H)-one]	101 to 500
CCCc1nn(C)c2c(=O)[nH]c(N(C)Cc3cc(-c4ccccc4)nn3C)nc12 [Example 38, 1-methyl-5-(methyl((1-methyl-3-phenyl-1H-pyrazol-5-yl)methyl)amino)-3-propyl-1H-pyrazolo[4,3-d]pyrimidin-7(6H)-one]	< 100
CCCc1nn(C)c2c(=O)[nH]c(N(C)Cc3csc(-c4ccc(C(F)(F)F)cc4)n3)nc12 [Example 39, 1-methyl-5-(methyl((2-(4-(trifluoromethyl)phenyl)thiazol-4-yl)methyl)amino)-3-propyl-1H-pyrazolo[4,3-d]pyrimidin-7(6H)-one]	101 to 500
CCCc1nn(C)c2c(=O)[nH]c(N(C)Cc3ccc(-c4ccncc4)cc3)nc12 [Example 40, 1-methyl-5-(methyl(4-(pyridin-4-yl)benzyl)amino)-3-propyl-1H-pyrazolo[4,3-d]pyrimidin-7(6H)-one]	< 100
CCCc1nn(C)c2c(=O)[nH]c(N(C)Cc3ccnc(N4CCCC4)c3)nc12 [Example 41, 1-methyl-5-(methyl((2-(pyrrolidin-1-yl)pyridin-4-yl)methyl)amino)-3-propyl-1H-pyrazolo[4,3-d]pyrimidin-7(6H)-one]	> 500
CCCc1nn(C)c2c(=O)[nH]c(N(C)Cc3cccc(N4CCOCC4)n3)nc12 [Example 42, 1-methyl-5-(methyl((6-morpholinopyridin-2-yl)methyl)amino)-3-propyl-1H-pyrazolo[4,3-d]pyrimidin-7(6H)-one]	101 to 500
CCCc1nn(C)c2c(=O)[nH]c(N(C)Cc3cccc(-c4ccncc4)c3)nc12 [Example 43, 1-methyl-5-(methyl(3-(pyridin-4-yl)benzyl)amino)-3-propyl-1H-pyrazolo[4,3-d]pyrimidin-7(6H)-one]	< 100
